Results as given in ChEMBL document CHEMBL1201862, “PubChem BioAssay data set” (2004).
The source made the active and inactive calls. No stated cut-off is given here; in the data, actives have a measured IC50 and inactives only a lower limit.

Target: Envelope glycoprotein gp160 (Human immunodeficiency virus 1, UniProt Q6QLK5)
Experiment: inhibitors of HIV fusion peptide binding, primary screen, biochemical, uHTS, fluorescence dequenching (AID 1986)

Envelope glycoprotein gp160, sequence (Q6QLK5 whole entry, the tested form may be a part): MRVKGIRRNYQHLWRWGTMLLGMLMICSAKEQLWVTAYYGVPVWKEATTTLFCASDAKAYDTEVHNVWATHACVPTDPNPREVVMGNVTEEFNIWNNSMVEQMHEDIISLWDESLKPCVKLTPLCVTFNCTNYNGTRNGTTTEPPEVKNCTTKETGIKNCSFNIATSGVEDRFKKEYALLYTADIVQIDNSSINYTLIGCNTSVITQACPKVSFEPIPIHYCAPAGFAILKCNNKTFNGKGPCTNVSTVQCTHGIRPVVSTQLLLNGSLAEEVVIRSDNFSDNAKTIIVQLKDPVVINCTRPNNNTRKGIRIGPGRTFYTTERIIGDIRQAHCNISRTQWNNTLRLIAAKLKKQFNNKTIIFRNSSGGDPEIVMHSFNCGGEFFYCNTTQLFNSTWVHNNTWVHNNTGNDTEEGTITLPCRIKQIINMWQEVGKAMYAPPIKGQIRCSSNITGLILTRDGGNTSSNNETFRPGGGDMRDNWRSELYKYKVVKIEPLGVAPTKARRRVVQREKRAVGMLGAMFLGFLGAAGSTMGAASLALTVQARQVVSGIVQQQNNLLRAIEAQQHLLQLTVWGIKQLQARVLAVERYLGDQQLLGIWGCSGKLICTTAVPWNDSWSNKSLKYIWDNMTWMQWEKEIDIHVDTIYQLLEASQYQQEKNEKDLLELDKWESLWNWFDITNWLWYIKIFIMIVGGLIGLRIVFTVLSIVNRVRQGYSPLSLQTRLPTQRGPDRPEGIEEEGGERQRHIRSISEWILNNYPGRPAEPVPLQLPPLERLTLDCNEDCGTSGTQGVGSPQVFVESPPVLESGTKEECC

In the case of `O=C(OCC1OC(n2ncc(=O)[nH]c2=O)C(OC(=O)c2ccccc2)C1OC(=O)c1ccccc1)c1ccccc1` (stereo unspecified), the IC50 is reported as 23.8 µM (active).
